Biological target: Amyloid-beta precursor protein (Homo sapiens) (UniProt P05067)
Assay: Binding affinity to amyloid beta (1 to 40 residues) (unknown origin) aggregation assessed as fold increase in fluorescence intensity

Sequence of Amyloid-beta precursor protein (Homo sapiens) (P05067 whole entry, the tested form may be a part): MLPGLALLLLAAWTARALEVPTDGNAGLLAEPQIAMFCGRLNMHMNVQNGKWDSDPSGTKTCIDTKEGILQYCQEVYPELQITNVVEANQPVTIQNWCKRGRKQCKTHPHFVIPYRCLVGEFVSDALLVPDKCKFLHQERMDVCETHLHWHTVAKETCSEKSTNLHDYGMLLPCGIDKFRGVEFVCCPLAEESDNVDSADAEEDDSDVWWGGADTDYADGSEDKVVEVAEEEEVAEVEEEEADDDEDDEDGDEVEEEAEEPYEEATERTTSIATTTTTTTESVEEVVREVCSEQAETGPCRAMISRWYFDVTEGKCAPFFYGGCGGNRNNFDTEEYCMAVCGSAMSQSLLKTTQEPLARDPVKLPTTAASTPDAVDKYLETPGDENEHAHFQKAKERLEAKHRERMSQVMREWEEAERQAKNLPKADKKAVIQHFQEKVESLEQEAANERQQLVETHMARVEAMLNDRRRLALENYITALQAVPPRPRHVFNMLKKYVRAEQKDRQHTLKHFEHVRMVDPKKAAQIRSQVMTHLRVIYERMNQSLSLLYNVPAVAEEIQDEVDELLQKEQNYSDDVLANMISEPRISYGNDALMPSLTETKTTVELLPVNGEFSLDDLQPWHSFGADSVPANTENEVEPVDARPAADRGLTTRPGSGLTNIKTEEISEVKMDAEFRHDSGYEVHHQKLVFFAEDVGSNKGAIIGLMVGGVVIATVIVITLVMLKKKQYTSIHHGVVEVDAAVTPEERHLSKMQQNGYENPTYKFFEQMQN

SMILES: CN(C)c1ccc(/C=C/C2=CC(/C=C/c3ccc(N(C)C)cc3)=[O+][B-](F)(F)O2)cc1
- fold change (FC): 70
